# Measurements from US20160317561A1, “USE OF D-RIBOSE FOR FATIGUED SUBJECTS” (Bioenergy Life Science, Inc., priority 2008, published 2016).
# Tests used:
# Type in all cases: in vivo, human
# [1] = SF-36 Quality of Life Questionnaire in fatigued aging subjects
# Source text: The SF-36 Quality of Life Questionnaire was also used. Subjects were asked to fill out a questionnaire on the normal activities that they participated in. An example of the SF-36 Quality of Life Questionnaire is presented in Appendix A. These activities included household chores, walking, yard work and whether the subject routinely climbed stairs. Additionally, subjects were asked how many days in the past week they felt good; missed work or routine chores because of fatigue; how tired they felt and their state on awakening in the morning. In order to understand what the self-perception of fatigue (described as fatigue, tiredness or loss of vitality) indicates, it is helpful to look at the questions asked in SF-36 Quality of Life questionnaire (Appendix A). The SF-36 questionnaire is applied particularly to evaluating physician-prescribed therapies, but the gender-neutral, generic, coherent and easily administered questions are useful to evaluate any discrete cohort of subjects in the categories desired. […] The first three categories as listed are directed to the subject's self-perceived status. The remaining categories are directed to the extent that status (whatever that status may be), affects the subject's functioning roles in several categories.
# [2] = Sub-maximal cardiopulmonary exercise (CPX) treadmill testing in fatigued aging subjects; conditions: for Hr to METS ratio at AT, mean change / Net Energy Expenditure at AT, mean change / O2 Uptake Slope, mean change / VE Slope, mean change / VO2 at AT, mean change: 3.0 g D-ribose bid orally
# Protocol: The pilot study was performed enrolling 20 aging subjects, greater than 45 years of age, who were self-perceived as fatigued and tired as their customary daily state for at least one month, with no strenuous exercise or physical labor to account for the fatigue. No subjects had documented histories of heart/lung or metabolism/endocrine disease, as set out more fully below in the inclusion criteria. The causes of fatigue in aging subjects is unknown. It can be hypothesized that the causes are mental, since lowered cognition and feeling of wellbeing is also common in aging persons. The aforementioned studies of unhealthy persons or persons exercising strenuously found a dose of five to eight grams of D-ribose, taken two to four times per day was recommended to raise or maintain ATP levels. Lower amounts such as in this study, were not found adequate for those subjects. For the healthy, but sedentary and aging subjects for this study, it was expected that they were already at an optimum ATP level. Two doses of oral D-ribose at 1.5 grams or 3.0 grams bid were selected to test the hypothesis that raising ATP levels with D-ribose could have some benefit in improving fatigue. Each subject consumed the oral D-ribose for two weeks, dissolved in a small amount of water. Study assessments were done at baseline, and at one and two weeks during the trial. The lower dose study was continued an additional two weeks. The subjective and objective assessment parameters included: sub-maximal exercise performance, resting and sub-maximal energy expenditure, the SF-36 Quality of Life Assessment and a subjective questionnaire for evaluating fatigue.
# Energy expenditure was calculated both at rest (BMR) and also at the anaerobic threshold (AT) using standard formulae incorporated into CPX-based software. Net energy expenditure was determined by subtracting resting values from those calculated at the subject's AT. In addition, the completed activity log was used to determine potential changes in cumulative (daily and weekly) energy expenditure throughout the first and second weeks while on D-ribose. Further, work efficiency was determined by calculating the reciprocal of aerobic power or the VO2 to WR ratio, as computed at the anaerobic threshold.
# The formula for calculation of energy expenditure at the anaerobic threshold was based, in part, on the actual measured resting energy expenditure (RER) and VO2 at that level of exercise, knowing that a subject can sustain a steady state at the initial phase of the AT, which represents a particular phase of exercise whereby energy metabolism due to an increase in oxygen consumption resulting in a reduction in tissue oxygen perfusion shifts to an anaerobic instead of an oxidative phosphorylation. The AT interval varies from person to person depending on physical condition or training. Individuals who are not trained and relatively deconditioned have a low AT, as compared to elite endurance athletes having a high AT. At the AT, fuel mix for skeletal muscle metabolism is somewhat balanced. This point occurs in the range between 40% to 60% of the maximum VO2 attained. For example, assuming that equal amounts of fats and carbohydrates are oxidized at an RER of 0.85 just prior to AT onset, energy expenditure can be calculated using the formula VO2(L/min)×4.862 kcal/min for each liter of oxygen consumed. Likewise, if an individual was at an RER of 0.89 under steady state conditions, their absolute VO2 in L/min would be multiplied by a factor of 4.911. Net energy expenditure would be calculated subtracting the subject's resting energy expenditure (REE) or BMR. METS or net metabolic equivalents was also used to express the subject's activity level at their AT.
# For this study, a ramping incremental treadmill exercise protocol was followed. […] The treadmill exercise was increased from 0 mph to 3.0 mph and the elevation increased from 0 to 12%, over the test time of six minutes. […]
# [3] = Side effects of D-ribose administration in the study subjects; conditions: higher (3.0 g bid) or lower (1.5 g bid) doses
# Source text: D-ribose ingestion is known to have the potential to cause gastrointestinal distress, including flatulence and diarrhea, and also can lower blood glucose.
# [4] = Fatigue questionnaire / Visual Analog Scale (VAS) for fatigue in fatigued aging subjects; conditions: for Fatigue questionnaire: lower dose (1.5 g bid)
# Protocol: Subjects were monitored at baseline and during the two week treatment period for their perceived fatigue activity levels. Subjects were asked to rate on a ten point scale (1=near dead to 10=excellent) the following questions: How is your energy? (1=no energy, 10=excellent); How do you sleep? (1=no sleep, 10=8 hours without waking); How is your mental clarity? (1=“brain fog”, 10=good clarity); How bad is your pain?; How is your overall sense of well being? At weeks one and two, subjects were also asked to describe their overall rating of symptoms of fatigue as compared to their symptoms at baseline. The five point scale was; much better, somewhat better; no change; somewhat worse and much worse. The investigators selected end-points of some assessments to determine whether the subjects remained the same or improved at one and two weeks. The results were represented in a Visual Analog Scale (VAS) for fatigue. Nine subjects completed the VAS forms of subjective estimate of tiredness (Appendix B) on a scale of 1 (completely disagree) to 7 (completely agree).
smiles,measurement,setting,value
O=C[C@H](O)[C@H](O)[C@H](O)CO [D-ribose],Response to the SF-36 Questionnaire,"[1]; lower dose (1.5 g bid), four weeks","improvement in symptoms of general health, vitality and mental outlook"
same,SF-36 Bodily pain (interference with activities),[1]; results at two weeks,significant improvement
same,SF-36 Emotional function role,[1]; results at two weeks,significant improvement
same,SF-36 Social function role,[1]; results at two weeks,significant improvement
same,SF-36 Vitality,"[1]; results at two weeks, initially low at 40th percentile",significant improvement
same,SF-36 Physical competence,"[1]; results at two weeks, initially near normal",slight improvement
same,SF-36 General health,"[1]; results at two weeks, initially normal",slight improvement
same,SF-36 Role physical function,"[1]; results at two weeks, initially slightly subnormal",significant improvement
same,"Social functionality, emotional wellbeing, mental health and mental competence (questionnaire)","[1]; two weeks, mental categories based on additional questions not in SF-36",increases
same,"Hr to METS ratio at AT, mean change",[2]; Week 1 vs baseline,−3.00 +/− 2.83
same,"Net Energy Expenditure at AT, mean change",[2]; Week 1 vs baseline,9.32 +/− 7.67
same,"O2 Uptake Slope, mean change",[2]; Week 1 vs baseline,0.17 +/− 0.19
same,"VE Slope, mean change",[2]; Week 1 vs baseline,−2.26 +/− 1.69
same,"VO2 at AT, mean change",[2]; Week 1 vs baseline,1.53 +/− 0.90
same,"Hr to METS ratio at AT, mean change",[2]; Week 2 vs baseline,−3.67 +/− 3.27
same,"Net Energy Expenditure at AT, mean change",[2]; Week 2 vs baseline,16.23 +/− 6.13
same,"O2 Uptake Slope, mean change",[2]; Week 2 vs baseline,0.24 +/− 0.15
same,"VE Slope, mean change",[2]; Week 2 vs baseline,−2.44 +/− 2.24
same,"VO2 at AT, mean change",[2]; Week 2 vs baseline,2.13 +/− 0.78
same,Increase in resting energy expenditure at the AT onset,"[2]; 3.0 g bid orally, end of two weeks",8.2%
same,Rise in net energy expenditure at the AT onset,"[2]; 3.0 g bid orally, end of two weeks, p<0.0005",32%
same,Increase in VO2 at the AT onset,"[2]; 3.0 g bid orally, end of two weeks, p<0.001",18%
same,Increase in heart rate at the AT onset,"[2]; 3.0 g bid orally, end of two weeks, p=0.012",9.2%
same,Decrease in heart rate to METS ratio,"[2]; 3.0 g bid orally, two weeks",11.7%
same,Decrease in oxygen pulse indexed to inspiratory drive,"[2]; 3.0 g bid orally, two weeks",8.9%
same,Decrease in ventilatory efficiency slope,"[2]; 3.0 g bid orally, two weeks",8.5%
same,Increase in change in oxygen pulse times change in expired CO2 at AT,"[2]; 3.0 g bid orally, two weeks",60.8%
same,Average calorie burned from fat substrate at the AT,"[2]; 3.0 g bid orally, two weeks, most subjects",did not change significantly
same,CPX parameters (objective measures),"[2]; lower dose (1.5 g bid), two weeks to four weeks",positive trend
same,Side effects of D-ribose administration,[3],"No subjects in this study, at either the higher or the lower doses, experienced any side effects"
same,Fatigue questionnaire,"[4]; continued for an additional two weeks (four weeks), FIG. 7",Continued improvement
same,Fatigue questionnaire,[4]; two weeks,slight reduction in fatigue
same,Decrease in self-perceived levels of fatigue (average),"[4]; six grams of D-ribose per day (3.0 g bid), two weeks",50%
